This note sets out measurements from ChEMBL document CHEMBL1143026, “A synthetic method for diversification of the P1' substituent in phosphinic dipeptides as a tool for exploration of the specificity of the S1' binding pockets of leucine aminopeptidases” (Bioorg Med Chem, 2007).

By pKi is commonly meant −log10 of the Ki, conventionally taken in molar units. Low readings indicate a high Ki, high ones a low Ki.

SMILES strings stand for the structures. pKi: −log10 of the molar value. Several values for one entry are separate records, joined by “and”; a condition that tells them apart may be missing. Equal values may be shown once. Activity calls are given as the source filed them. No cut-off for these calls is given here.

The nature of assay [1]: Inhibition of pig kidney cytosolic leucine aminopeptidase. Further details: species or system Sus scrofa.
For a further assay, the species on record is Sus scrofa. Kind of assay: Inhibition of pig kidney microsomal leucine aminopeptidase at 10 to 20 uM.
Assay [2] is described as follows: Inhibition of pig kidney microsomal leucine aminopeptidase. Details: species or system Sus scrofa.

Regarding `NC(CCc1ccccc1)P(=O)(O)CC(NCc1ccc(CO)cc1)C(=O)O` (stereo unspecified), the pKi in assay [1] was 5.38 and 5.85. Besides, the outcome in the assay filed under Sus scrofa was inactive.
Consider `NC(CCc1ccccc1)P(=O)(O)CC(NCc1ccccc1)C(=O)O` (stereo in doubt; 6,F1) [listing 1 of 2 here], for which the result in the assay filed under Sus scrofa was inactive.
In the case of `NCc1ccc(NC(CP(=O)(O)C(N)CCc2ccccc2)C(=O)O)cc1` (stereo unspecified), the pKi is 5.35 in assay [1] and 6.25 in assay [2].
For the molecule `NC(CCc1ccccc1)P(=O)(O)CC(NCc1ccccc1)C(=O)O` (stereo in doubt; 6,F1) [listing 2 of 2 here], the pKi in assay [1] is 5.00.
For the molecule `NC(CCc1ccccc1)P(=O)(O)CC(NCc1ccccc1)C(=O)O` (stereo in doubt; 6), the figures for the pKi in assay [1] and in assay [2] were 4.91 and 2.82, respectively.
The like results for `NCc1ccc(CNC(CP(=O)(O)C(N)CCc2ccccc2)C(=O)O)cc1` (stereo in doubt; 8,F1) were, in that order, 5.56 and 4.70.
Regarding `NC(CCc1ccccc1)P(=O)(O)CC(Nc1ccccc1)C(=O)O` (stereo unspecified), the pKi in assay [1] is 6.24 and 6.35. Moreover, the result in the assay filed under Sus scrofa was inactive.
Consider `NCc1ccc(CNC(CP(=O)(O)C(N)CCc2ccccc2)C(=O)O)cc1` (stereo in doubt; 8,F2), for which the pKi in assay [1] and in assay [2] was 5.58 each time.
For `NC(CCc1ccccc1)P(=O)(O)CC(Nc1ccc(CO)cc1)C(=O)O` (stereo unspecified), the pKi in assay [1] was 4.99 and 5.16; in assay [2], 6.05 and 5.95.
